Source: patent publication US12643858B2 (Inipharm, Inc., priority 2020, dated 2026)

Columns and labels:
HSD17B13 enzyme [1] = molecular target: T1, HSD17B13 enzyme (Homo sapiens, UniProt Q7Z5P4); assay: NADH detection assay (fluorescence based LTB3 assay) for HSD17B13 activity; assay type: biochemical; details: substrate 25 μM LTB3, 3 mM NAD+, 125 nM HSD17B13 enzyme, 1 hour at 26.5° C.
T1 construct: His; made in house; host or cells: E. coli
T1 sequence (Q7Z5P4 20-300): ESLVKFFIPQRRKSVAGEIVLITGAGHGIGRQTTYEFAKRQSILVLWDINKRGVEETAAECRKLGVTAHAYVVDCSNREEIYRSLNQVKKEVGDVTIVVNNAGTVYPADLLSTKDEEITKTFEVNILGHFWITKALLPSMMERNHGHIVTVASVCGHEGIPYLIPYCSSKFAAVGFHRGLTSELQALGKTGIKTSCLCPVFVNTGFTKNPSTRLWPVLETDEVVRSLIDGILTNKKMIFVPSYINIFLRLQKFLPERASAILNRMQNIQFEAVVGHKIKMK
Experimental: Example A: NADH Detection Assay for Evaluation of HSD17ß13 Activity and Identification of Inhibitors
The fluorescence based Leukotriene B3 (LTB3) assay monitors the fluorescence of NADH, which is generated from NAD+ during the dehydrogenation of the substrate LTB3. The reactions were performed in a 384-well plates (Greiner; #655076) in a 20 μl reaction volume containing the following reagents (final concentrations): 25 μM LTB3 (Cayman; #20109); 3 mM NAD+ (Sigma; #N0623); 125 nM HSD17B13 enzyme (in-house; E. coli expressed His-tagged, purified, soluble protein); […] potassium phosphate buffer, pH 7.4; and 1% DMSO. Reactions were initiated by co-addition of NAD+ and enzyme, and monitored for 1 hour at 26.5° C. Generation of NADH was measured as the fluorescence signal (Excitation at 340 nm and Emission at 445 nm) at 1 hour minus the baseline fluorescence at t=0. Fluorescence signals in the absence of LTB3 (negative control values), were subtracted from all values so that the results reflected substrate-dependent production of NADH. NADH standards were included to allow the conversion of relative fluorescence units into rates of enzyme activity. Enzyme activity in the presence of test compounds was expressed as a percentage of the uninhibited enzyme activity, and plotted versus inhibitor concentration. Non-linear regression was performed using a four-parameter logistic model and GraphPad Prism software (GraphPad Software, La Jolla, CA). Ten concentrations of inhibitor were tested (in the range of 30 μM-2.5 nM), and two independent assessments were performed at each concentration.

HSD17B13 enzyme [2] = molecular target: T1, HSD17B13 enzyme; assay: Estrone detection assay (LC/MS, estradiol to estrone conversion) for HSD17B13 activity; assay type: biochemical; details: substrate 4 μM Estradiol, 6 mM NAD+, 30 nM HSD17B13 enzyme, 2 hours at 26.5° C.
Experimental: Example B: Estrone Detection Assay for Evaluation of HSD17ß13 Activity and Identification of Inhibitors
The liquid chromatography/mass spectrometry (LC/MS) estrone detection assay monitors the conversion of estradiol to estrone by HSD17B13. This assay was undertaken in a 96wp format (Eppendorf deep well Plate 96/500) in an 80 μl reaction volume containing: 4 μM of Estradiol (E2; Cayman; Ser. No. 10/006,315), 6 mM NAD+(Sigma; #N0623) and 30 nM HSD17B13 enzyme (in-house; E. coli expressed His-tagged, purified, soluble protein) in a reaction containing […] potassium phosphate buffer pH 7.4, with 0.5% vehicle (DMSO). Reactions were incubated for 2 hours at 26.5° C., and estradiol (E2) conversion to estrone (E1) was quantitated by LC-MS/MS based analyte detection for both E2 and E1 using LCMS grade reagents.
Reactions were terminated by the addition of two volumes of acetonitrile (MeCN; LCMS grade; CAS #75/05/8) containing deuterated (D4)-E1 used as internal standard (Clear Synth; #CS-T-54273; 500 ng/mL final concentration). Samples were applied to pre-prepared Bond Elut-C18 extraction cartridges (3 mL; Agilent; Ser. No. 12/102,028), washed and eluted in MeCN. Eluates were dried under nitrogen and re-suspended in 60% methanol (LCMS grade methanol; CAS #67/56/1) before submission for analysis. Aqueous linearity for E2 and E1 were included for quantification.
Analysis of samples was undertaken on a XBridge BEH C18 column (Waters; #186003033) using 0.1% Diethyl Amine in MeCN (mobile phase A; DEA CAS #109-89-7) and 0.1% Diethyl Amine in milli-Q water (mobile phase B) in a 3 min gradient allowing 25% B. Analytes were detected in negative mode using MRM analysis, with E2 having a RT of 1.85 min and E1 having a RT of 2 min. Activity of the enzyme, in the absence of NAD+, was used to evaluate specificity of conversion. Enzyme activity in the presence of test samples was expressed as a percentage of the uninhibited enzyme activity, and plotted versus inhibitor concentration. Non-linear regression was performed using a four-parameter logistic model and GraphPad Prism software (GraphPad Software, La Jolla, CA). All assessments were undertaken in duplicate evaluations and pooled during extraction process and subsequently injected as duplicates for LC-MS/MS analysis.

Row | Compound | IC50 (HSD17B13 enzyme [1]) [µM] | IC50 (HSD17B13 enzyme [2]) [µM]
1 | Oc1cc(Oc2cccc(-c3cc(F)cc(F)c3)n2)ccc1F [Example 89, 5-{[6-(3,5-difluorophenyl)pyridin-2-yl]oxy}-2-fluorophenol] | ≤ 5 | 
2 | Oc1cc(Oc2cccc(-c3ccccc3F)n2)ccc1F [Example 90, 2-fluoro-5-((6-(2-fluorophenyl)pyridin-2-yl)oxy)phenol] | ≤ 5 | 
3 | N#Cc1ccc(-c2cccc(Oc3ccc(F)c(O)c3)n2)c(F)c1 [Example 92, 3-fluoro-4-(6-(4-fluoro-3-hydroxyphenoxy)pyridin-2-yl)benzonitrile] | > 30 | 
4 | O=S(=O)(Nc1cccc(Oc2cccc(-c3cccc(O)c3F)n2)c1)C1CC1 [Example 93, N-(3-{[6-(2-fluoro-3-hydroxyphenyl)pyridin-2-yl]oxy}phenyl)cyclopropane-sulfonamide] | > 30 | 
5 | CS(=O)(=O)NCc1cccc(Oc2cccc(-c3cccc(O)c3F)n2)c1 [Example 94, N-[(3-{[6-(2-fluoro-3-hydroxyphenyl)pyridin-2-yl]oxy}phenyl)methyl]methane-sulfonamide] | > 30 | 
6 | COc1cccc(-c2cccc(Oc3cccc(CNS(C)(=O)=O)c3)n2)c1F [Example 96, N-[(3-{[6-(2-fluoro-3-methoxyphenyl)pyridin-2-yl]oxy}phenyl)methyl]methane-sulfonamide] | > 30 | 
7 | Oc1cccc(-c2cccc(Oc3ccc(F)c(O)c3)n2)c1 [Example 97, 2-fluoro-5-{[6-(3-hydroxyphenyl)pyridin-2-yl]oxy}phenol] | 10 to 30 | 
8 | Oc1cc(Oc2cccc(-c3ccc(C(F)(F)F)cc3)n2)ccc1F [Example 98, 2-fluoro-5-((6-(4-(trifluoromethyl)phenyl)pyridin-2-yl)oxy)phenol] | 10 to 30 | 
9 | COc1ccc(-c2cccc(Oc3ccc(F)c(O)c3)n2)cc1 [Example 102, 2-fluoro-5-((6-(4-methoxyphenyl)pyridin-2-yl)oxy)phenol] | 10 to 30 | 
10 | Oc1cc(Oc2cccc(-c3cccc(C(F)(F)F)c3)n2)ccc1F [Example 103, 2-fluoro-5-((6-(3-(trifluoromethyl)phenyl)pyridin-2-yl)oxy)phenol] | 5 to 10 | 
11 | N#Cc1cccc(-c2cccc(Oc3ccc(F)c(O)c3)n2)c1 [Example 104, 3-(6-(4-fluoro-3-hydroxyphenoxy)pyridin-2-yl)benzonitrile] | 10 to 30 | 
12 | CC(=O)Nc1cc(Oc2cccc(-c3cccc(O)c3F)n2)ccc1F [Example 106, N-(2-fluoro-5-{[6-(2-fluoro-3-hydroxyphenyl)pyridin-2-yl]oxy}phenyl)acetamide] | > 30 | 
13 | COc1cccc(-c2cccc(Oc3ccc(F)c(NC(C)=O)c3)n2)c1F [Example 107, N-(2-fluoro-5-{[6-(2-fluoro-3-methoxyphenyl)pyridin-2-yl]oxy}phenyl)acetamide] | > 30 | 
14 | COc1cccc(-c2cccc(Oc3ccc(O)nc3)n2)c1F [Example 108, 5-{[6-(2-fluoro-3-methoxyphenyl)pyridin-2-yl]oxy}-1,2-dihydropyridin-2-one] | > 30 | 
15 | O=S(=O)(Nc1cccc(-c2cccc(Oc3ccc(F)c(O)c3)n2)c1)C1CC1 [Example 113, N-(3-(6-(4-fluoro-3-hydroxyphenoxy)pyridin-2-yl)phenyl) cyclopropanesulfonamide] | 10 to 30 | 
16 | O=S(=O)(Nc1cccc(-c2cccc(Oc3ccc(F)c(O)c3)n2)c1F)C1CC1 [Example 114, N-{2-fluoro-3-[6-(4-fluoro-3-hydroxyphenoxy)pyridin-2-yl]phenyl} cyclopropanesulfonamide] | 5 to 10 | 
17 | Oc1c(F)ccc(Oc2ccnc(-c3ccc(N4CCOCC4)cc3)n2)c1F [Example 115, 2,6-difluoro-3-((2-(4-morpholinophenyl)pyrimidin-4-yl)oxy)phenol] |  | ≤ 0.1
18 | O=S1(=O)CCN(c2ccc(-c3nccc(Oc4ccc(F)c(O)c4F)n3)cc2)CC1 [Example 116, 4-(4-(4-(2,4-difluoro-3-hydroxyphenoxy)pyrimidin-2-yl)phenyl) thiomorpholine 1,1-dioxide] |  | ≤ 0.1
19 | Oc1c(Cl)ccc(Oc2ccnc(-c3ccc(N4CCOCC4)cc3)n2)c1Cl [Example 118, 2,6-dichloro-3-((2-(4-morpholinophenyl)pyrimidin-4-yl)oxy)pheno] |  | 0.5 to 1

The remaining lines, values ahead:

Row | IC50 (HSD17B13 enzyme [1]) [µM] | IC50 (HSD17B13 enzyme [2]) [µM] | Compound
20 | ≤ 5 |  | Oc1cc(Oc2cccc(-c3cc(F)ccc3F)n2)ccc1F [Example 88, 5-{[6-(2,5-difluorophenyl)pyridin-2-yl]oxy}-2-fluorophenol]
21 | > 30 |  | COc1cccc(-c2cccc(Oc3cccc(NS(=O)(=O)C4CC4)c3)n2)c1F [Example 95, N-(3-{[6-(2-fluoro-3-methoxyphenyl)pyridin-2-yl]oxy}phenyl)cyclopropane-sulfonamide]
22 | 10 to 30 |  | COc1ccccc1-c1cccc(Oc2ccc(F)c(O)c2)n1 [Example 99, 2-fluoro-5-((6-(2-methoxyphenyl)pyridin-2-yl)oxy)phenol]
23 | 10 to 30 |  | Oc1cc(Oc2cccc(-c3ccc(C(F)(F)F)c(Cl)c3)n2)ccc1F [Example 100, 5-((6-(3-chloro-4-(trifluoromethyl)phenyl)pyridin-2-yl)oxy)-2-fluorophenol]
24 | 10 to 30 |  | Oc1cc(Oc2cccc(-c3ccc(Cl)c(C(F)(F)F)c3)n2)ccc1F [Example 101, 5-((6-(4-chloro-3-(trifluoromethyl)phenyl)pyridin-2-yl)oxy)-2-fluorophenol]
25 | > 30 |  | COc1cccc(-c2cccc(Oc3ccc4cn[nH]c4c3)n2)c1F [Example 105, 6-{[6-(2-fluoro-3-methoxyphenyl)pyridin-2-yl]oxy}-1H-indazole]
26 | > 30 |  | CNC(=O)c1cc(Oc2cccc(-c3cccc(OC)c3F)n2)ccc1F [Example 109, 2-fluoro-5-{[6-(2-fluoro-3-methoxyphenyl)pyridin-2-yl]oxy}-N-methylbenzamide]
27 | > 30 |  | COc1cc(Oc2cccc(-c3ccc4cn[nH]c4c3)n2)ccc1F [Example 110, 6-[6-(4-fluoro-3-methoxyphenoxy)pyridin-2-yl]-2H-indazole]
28 | > 30 |  | COc1cccc(-c2cccc(Oc3ccc(F)c(NS(C)(=O)=O)c3)n2)c1F [Example 111, N-(2-fluoro-5-((6-(2-fluoro-3-methoxyphenyl)pyridin-2-yl)oxy)phenyl) methanesulfonamide]
29 | > 30 |  | COc1cccc(-c2cccc(Oc3ccc(=O)n(C(F)F)c3)n2)c1F [Example 112, 1-(difluoromethyl)-5-((6-(2-fluoro-3-methoxyphenyl)pyridin-2-yl)oxy)pyridin-2(1H)-one]
30 |  | 0.1 to 0.5 | Oc1c(Cl)ccc(Oc2ccnc(-c3ccc(N4CCOCC4)cc3)n2)c1F [Example 117, 6-chloro-2-fluoro-3-((2-(4-morpholinophenyl)pyrimidin-4-yl)oxy)phenol]
